Legend:
[1] = Fish sauce triangle test with odor description
Text: The panelists received the following instruction: Please smell the three samples and mark the sensorially deviating samples with a cross. In any case, one of the samples must be ticked, even if no difference can be noted.

[2] = Panel rating of odor attributes of soy sauce containing biogenic amines, with and without added compound; conditions: panelists n=6-8, scale 0-10, versus product alone
Text: The panelists (n=6-8) rate the attributes animalistic—fishy, metallic as well as woody, sweet, flowery and terpenic, herbal on an unstructured scale from 0 (no taste)—10 (strong taste). Thereby, the order is arbitrary and not known by the panelists beforehand.

[3] = dosage of the compound 0.1 mg/kg
[4] = dosage of the compound 0.5 mg/kg

SMILES	Odor description (indication of relative change in percent) Animalistic-fishy, metallic [2, 4]	Odor description (indication of relative change in percent) Terpenig, herbal [2, 4]	Odor description (indication of relative change in percent) Woody, sweet, flowery [2, 4]	Odor description (indication of relative change in percent) Animalistic-fishy, metallic ([2]; dosage of the compound 1 mg/kg)	Odor description (indication of relative change in percent) Terpenig, herbal ([2]; dosage of the compound 1 mg/kg)	Odor description (indication of relative change in percent) Woody, sweet, flowery ([2]; dosage of the compound 1 mg/kg)	also measured
CCc1ncc(C)nc1CC [2,3-Diethyl-5-methyl-pyrazine, 2,3-diethyl-5-methyl-pyrazine]	–	–	–	–	–	–	Odor description [1, 3]: metallic, dusty,
CC1CCc2nccnc21 (centres unmarked) [5-Methyl-6,7-dihydrocyclopentapyrazine, 5-methyl-6,7-dihydro-5H-cyclopenta[b]pyrazine]	−7.4%	−5.2%	−10.0%	–	–	–	Odor description ([1]; dosage of the compound 0.05 mg/kg): not fishy, less silage notes,
CC(=O)/C=C/C1C(C)=CCCC1(C)C (stereo not drawn) [Alpha ionone, (E)-4-(2,6,6-trimethylcyclohex-2-en-1-yl)but-3-en-2-one]	–	–	–	−20.5%	−7.6%	−4.4%	Odor description [1, 3]: bready, earthy,
CC1=CCCC(C)(C)C1/C=C/C(C)O (stereo not drawn) [Alpha-Ionol, (E)-4-(2,6,6-trimethylcyclohex-2-en-1-yl)but-3-en-2-ol]	–	–	–	–	–	–	Odor description [1, 4]: bready, earthy, rounded
C/C=C/C(=O)C1C(C)=CCCC1(C)C (stereo not drawn) [Alpha-damascone, (E)-1-(2,6,6-trimethylcyclohex-2-en-1-yl)but-2-en-1-one]	–	–	–	–	–	–	Odor description ([1]; dosage of the compound 0.2 mg/kg): cocoa note, sweet,
CC(=O)/C=C/C12OC1(C)CCCC2(C)C (stereo not drawn) [Beta epoxyionone, (E)-4-(1,5,5-trimethyl-7-oxabicyclo[4.1.0]heptan-6-yl)but-3-en-2-one]	−5.4%	21.1%	22.8%	–	–	–	–
CC(=O)/C=C/C1=C(C)CCCC1(C)C [Beta ionone, (E)-4-(2,6,6-trimethylcyclohex-1-en-1-yl)but-3-en-2-one]	–	–	–	–	–	–	Odor description (indication of relative change in percent) Animalistic-fishy, metallic ([2]; dosage of the compound 2 mg/kg): 2.4%; Odor description (indication of relative change in percent) Terpenig, herbal ([2]; dosage of the compound 2 mg/kg): −28.9%; Odor description (indication of relative change in percent) Woody, sweet, flowery ([2]; dosage of the compound 2 mg/kg): 51.9%; Odor description [1, 4]: less silage notes,
CC1=CC=C2C(C)(C)CCCC2(C)O1 (centres unmarked) [Cycloionone, 2,5,5,8a-tetramethyl-7,8-dihydro-6H-chromene]	2.3%	19.6%	33.8%	–	–	–	–
CC(=O)CCC1=C(C)CCCC1(C)C [Dihydroionone]	8.9%	−8.3%	9.5%	–	–	–	–
CC1=CC(C)C(C=O)C(C)C1 (centres unmarked) [Isocyclocitral]	–	–	–	–	–	–	Odor description ([1]; dosage of the compound 1 mg/kg): bready, rounded,
CCC(O)CCC1C(C)CCCC1(C)C (centres unmarked) [Madranol, 1-(2,2,6-trimethylcyclohexyl)pentan-3-ol]	–	–	–	−13.9%	−6.0%	6.6%	–
C/C=C/C=C1/C(C)=CC(=O)CC1(C)C [Tabanon, (4E)-4-[(E)-but-2-enylidene]-3,5,5-trimethyl-cyclohex-2-en-1-one]	–	–	–	−18.8%	−8.2%	13.7%	Odor description [1, 4]: bready, less
CCCC(O)CCC1C(C)CCCC1(C)C (centres unmarked) [Timberol, 1-(2,2,6-trimethylcyclohexyl)hexan-3-ol]	–	–	–	−26.5%	−3.8%	27.9%	–
